From ChEMBL document CHEMBL1156241, “Synthesis of a biologically active isomer of kotalanol, a naturally occurring glucosidase inhibitor” (Bioorg Med Chem, 2010)

target: Maltase-glucoamylase (Homo sapiens, UniProt O43451); assay: Inhibition of recombinant human maltase glucoamylase N-terminal catalytic domain
Sequence (O43451 whole entry, the tested form may be a part): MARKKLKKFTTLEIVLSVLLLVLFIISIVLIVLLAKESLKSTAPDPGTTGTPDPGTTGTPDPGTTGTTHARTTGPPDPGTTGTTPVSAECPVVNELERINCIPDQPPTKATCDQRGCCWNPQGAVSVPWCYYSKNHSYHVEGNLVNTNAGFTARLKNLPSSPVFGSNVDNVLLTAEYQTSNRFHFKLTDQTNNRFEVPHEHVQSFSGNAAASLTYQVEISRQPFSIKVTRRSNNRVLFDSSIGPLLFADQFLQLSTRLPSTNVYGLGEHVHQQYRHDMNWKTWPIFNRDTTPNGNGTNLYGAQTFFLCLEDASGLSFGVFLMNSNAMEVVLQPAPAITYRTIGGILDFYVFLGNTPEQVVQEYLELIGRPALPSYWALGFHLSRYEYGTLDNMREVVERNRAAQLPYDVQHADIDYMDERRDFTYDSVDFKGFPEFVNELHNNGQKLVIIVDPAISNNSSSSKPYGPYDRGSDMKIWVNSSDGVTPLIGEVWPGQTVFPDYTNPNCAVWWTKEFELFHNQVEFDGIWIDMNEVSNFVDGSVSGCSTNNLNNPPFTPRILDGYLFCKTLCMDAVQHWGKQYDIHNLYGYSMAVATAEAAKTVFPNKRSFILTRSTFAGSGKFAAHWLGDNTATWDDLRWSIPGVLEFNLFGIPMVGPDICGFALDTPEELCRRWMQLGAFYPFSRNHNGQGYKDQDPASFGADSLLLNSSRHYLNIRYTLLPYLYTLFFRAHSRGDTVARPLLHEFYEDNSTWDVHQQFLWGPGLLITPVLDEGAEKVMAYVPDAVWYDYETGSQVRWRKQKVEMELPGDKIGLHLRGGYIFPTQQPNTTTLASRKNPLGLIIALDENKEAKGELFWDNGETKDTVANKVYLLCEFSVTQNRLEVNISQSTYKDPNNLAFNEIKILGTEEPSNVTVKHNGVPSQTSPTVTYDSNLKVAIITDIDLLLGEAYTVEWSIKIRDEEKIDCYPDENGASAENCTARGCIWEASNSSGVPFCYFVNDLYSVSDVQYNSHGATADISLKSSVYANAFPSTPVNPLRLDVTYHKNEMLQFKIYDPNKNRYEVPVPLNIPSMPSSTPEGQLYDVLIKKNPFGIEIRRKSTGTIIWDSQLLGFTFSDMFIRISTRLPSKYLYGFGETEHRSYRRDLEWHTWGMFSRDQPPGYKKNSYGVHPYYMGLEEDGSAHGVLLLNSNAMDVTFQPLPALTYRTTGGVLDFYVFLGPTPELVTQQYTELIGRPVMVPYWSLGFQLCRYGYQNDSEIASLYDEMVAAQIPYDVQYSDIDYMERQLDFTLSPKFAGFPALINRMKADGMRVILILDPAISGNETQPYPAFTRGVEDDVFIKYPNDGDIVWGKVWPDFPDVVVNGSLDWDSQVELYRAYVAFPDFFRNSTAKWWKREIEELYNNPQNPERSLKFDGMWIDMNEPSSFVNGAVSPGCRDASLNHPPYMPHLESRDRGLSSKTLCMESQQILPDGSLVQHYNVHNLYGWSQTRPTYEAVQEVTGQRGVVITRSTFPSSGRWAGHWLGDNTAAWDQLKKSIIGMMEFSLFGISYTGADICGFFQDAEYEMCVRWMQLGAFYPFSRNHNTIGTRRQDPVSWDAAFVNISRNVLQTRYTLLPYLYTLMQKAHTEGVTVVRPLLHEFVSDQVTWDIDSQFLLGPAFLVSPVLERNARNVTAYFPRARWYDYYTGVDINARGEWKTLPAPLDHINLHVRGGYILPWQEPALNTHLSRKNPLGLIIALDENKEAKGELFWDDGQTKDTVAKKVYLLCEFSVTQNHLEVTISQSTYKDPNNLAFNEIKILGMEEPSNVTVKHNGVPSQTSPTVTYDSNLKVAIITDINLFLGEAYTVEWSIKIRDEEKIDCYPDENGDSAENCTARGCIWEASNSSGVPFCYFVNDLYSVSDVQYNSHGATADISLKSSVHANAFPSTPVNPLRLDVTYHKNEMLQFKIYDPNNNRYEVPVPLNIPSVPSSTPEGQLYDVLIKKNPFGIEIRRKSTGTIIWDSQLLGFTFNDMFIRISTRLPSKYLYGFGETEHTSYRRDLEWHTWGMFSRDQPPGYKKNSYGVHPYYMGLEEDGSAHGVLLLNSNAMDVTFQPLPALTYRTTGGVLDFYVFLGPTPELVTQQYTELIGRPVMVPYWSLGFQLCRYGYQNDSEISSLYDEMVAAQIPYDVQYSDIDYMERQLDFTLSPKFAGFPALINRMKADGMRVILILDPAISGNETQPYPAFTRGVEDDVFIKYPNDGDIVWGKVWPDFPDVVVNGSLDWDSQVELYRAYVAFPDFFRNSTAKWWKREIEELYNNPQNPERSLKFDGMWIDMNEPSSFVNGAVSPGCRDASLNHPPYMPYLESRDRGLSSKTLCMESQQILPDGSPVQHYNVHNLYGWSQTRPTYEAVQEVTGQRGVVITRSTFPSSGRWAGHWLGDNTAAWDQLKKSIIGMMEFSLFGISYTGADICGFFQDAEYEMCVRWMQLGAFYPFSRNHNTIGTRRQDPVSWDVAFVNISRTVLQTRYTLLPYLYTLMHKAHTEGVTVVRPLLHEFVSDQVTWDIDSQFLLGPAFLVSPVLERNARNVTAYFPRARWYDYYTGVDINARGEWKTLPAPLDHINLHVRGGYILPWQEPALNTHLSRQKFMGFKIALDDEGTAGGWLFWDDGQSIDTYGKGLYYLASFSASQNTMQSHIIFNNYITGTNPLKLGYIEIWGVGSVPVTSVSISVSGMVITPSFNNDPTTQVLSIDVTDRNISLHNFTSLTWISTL

| SMILES | Ki [nM] |
| --- | --- |
| O=S(=O)([O-])O[C@@H]([C@H](O)[C@H](O)[C@H](O)CO)[C@H](O)C[S+]1C[C@@H](O)[C@H](O)[C@H]1CO (some centres undefined) | 200 |
| O=S(=O)([O-])O[C@@H]([C@H](O)[C@H](O)[C@@H](O)CO)[C@H](O)C[S+]1C[C@@H](O)[C@H](O)[C@H]1CO (some centres undefined) [KOTALANOL] | 190 |
| O=S(=O)([O-])O[C@@H]([C@H](O)[C@@H](O)[C@H](O)CO)[C@H](O)C[S+]1C[C@@H](O)[C@H](O)[C@H]1CO (some centres undefined) | 130 |
| O=S(=O)([O-])O[C@@H]([C@H](O)[C@@H](O)[C@@H](O)CO)[C@H](O)C[S+]1C[C@@H](O)[C@H](O)[C@H]1CO (some centres undefined) | 100 |
